Reference: US20240360157A1, “TYK2 INHIBITORS” (BIOGEN MA INC., priority 2021, published 2024)

Experiments:
Format in all cases: biochemical
[1] = target: human JAK3 catalytic kinase (JH1) domain (Homo sapiens (Human), UniProt P52333); experiment: ADP-Glo Kinase Assay, recombinant JAK3 catalytic kinase (JH1) domain; conditions: recombinant JH1 domain 0.3 nM, 4 μM ATP, JAK3-974 peptide, mean, read-out: JAK3 biochem IC50 (nM) Mean
In short: (§1)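 Luminescent ADP read-out after residual ATP depletion, 100 min reaction. Kinase domain concentrations were 4 nM (JAK1), 0.2 nM (JAK2), 0.3 nM (JAK3) and 2 nM (TYK2), each with 50 μM peptide. IC50 values came from 4-parameter logistic fits over 11 points, 3-fold steps, top 10 μM or 1 μM.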

[2] = target: human TYK2 catalytic kinase (JH1) domain (Homo sapiens (Human), UniProt P29597); experiment: ADP-Glo Kinase Assay, recombinant TYK2 catalytic kinase (JH1) domain; conditions: recombinant JH1 domain 2 nM, 10 μM ATP, JAK3-974 peptide, mean, read-out: TYK2 biochem IC50 (nM) Mean
Sequence of human TYK2 catalytic kinase (JH1) domain (P29597 897-1176): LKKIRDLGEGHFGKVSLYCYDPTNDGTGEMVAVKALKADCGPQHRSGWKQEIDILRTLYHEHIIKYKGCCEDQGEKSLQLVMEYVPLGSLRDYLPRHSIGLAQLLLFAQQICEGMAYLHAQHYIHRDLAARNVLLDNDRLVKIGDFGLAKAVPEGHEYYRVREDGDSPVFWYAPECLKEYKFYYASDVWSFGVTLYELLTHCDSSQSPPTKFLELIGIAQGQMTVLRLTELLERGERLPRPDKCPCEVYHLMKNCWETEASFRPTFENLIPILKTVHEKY
In short: as §1

[3] = target: human JAK1 catalytic kinase (JH1) domain (Homo sapiens (Human), UniProt P23458); experiment: ADP-Glo Kinase Assay, recombinant JAK1 catalytic kinase (JH1) domain; conditions: recombinant JH1 domain 4 nM, 35 μM ATP, JAK3-342 peptide, mean, read-out: JAK1 biochem IC50 (nM) Mean
Sequence of human JAK1 catalytic kinase (JH1) domain (P23458 875-1153): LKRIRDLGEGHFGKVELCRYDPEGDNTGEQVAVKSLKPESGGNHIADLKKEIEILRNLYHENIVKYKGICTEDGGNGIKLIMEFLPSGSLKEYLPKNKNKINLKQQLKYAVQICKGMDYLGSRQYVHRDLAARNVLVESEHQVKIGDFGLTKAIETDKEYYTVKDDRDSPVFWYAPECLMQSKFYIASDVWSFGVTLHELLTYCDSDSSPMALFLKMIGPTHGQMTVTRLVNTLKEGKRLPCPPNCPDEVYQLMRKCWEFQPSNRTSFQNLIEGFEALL
In short: as §1

[4] = target: human JAK2 catalytic kinase (JH1) domain (Homo sapiens (Human), UniProt O60674); experiment: ADP-Glo Kinase Assay, recombinant JAK2 catalytic kinase (JH1) domain; conditions: recombinant JH1 domain 0.2 nM, 15 μM ATP, JAK3-974 peptide, mean, read-out: JAK2 biochem IC50 (nM) Mean
Sequence of human JAK2 catalytic kinase (JH1) domain (O60674 849-1124): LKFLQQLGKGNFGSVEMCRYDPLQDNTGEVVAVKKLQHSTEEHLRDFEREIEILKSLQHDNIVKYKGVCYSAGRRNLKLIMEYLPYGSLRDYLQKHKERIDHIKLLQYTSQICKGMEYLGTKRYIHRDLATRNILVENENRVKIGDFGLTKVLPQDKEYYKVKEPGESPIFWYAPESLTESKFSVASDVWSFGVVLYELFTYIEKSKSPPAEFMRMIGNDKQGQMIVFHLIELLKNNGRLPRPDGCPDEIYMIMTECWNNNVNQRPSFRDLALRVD
In short: as §1

Sequence of human JAK3 catalytic kinase (JH1) domain (P52333 822-1111): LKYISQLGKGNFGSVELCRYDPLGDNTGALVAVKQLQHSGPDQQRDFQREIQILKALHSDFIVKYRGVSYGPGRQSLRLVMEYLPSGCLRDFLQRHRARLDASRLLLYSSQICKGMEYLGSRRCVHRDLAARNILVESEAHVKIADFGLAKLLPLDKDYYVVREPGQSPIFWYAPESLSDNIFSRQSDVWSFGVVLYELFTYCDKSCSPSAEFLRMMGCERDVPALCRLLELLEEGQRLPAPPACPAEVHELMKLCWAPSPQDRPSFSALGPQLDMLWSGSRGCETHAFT

With `Cc1ccc(-c2cc3c(N4CC5CCC(C4)N5C(=O)[C@@H]4C[C@H]4F)ccnn3c2)cn1` [Example 113, ((1S,2R)-2-fluorocyclopropyl)(3-(6-(6-methylpyridin-3-yl)pyrrolo[1,2-b]pyridazin-4-yl)-3,8-diazabicyclo[3.2.1]octan-8-yl)methanone] as the molecule, how does the IC50 [1] read?
Its IC50 is 672 nM.

And the IC50 [2]?
The IC50 was 3 nM.

What about the IC50 [3] of the same molecule?
The IC50 was 69 nM.

What about the IC50 [4] of the same molecule?
The IC50 was 56 nM.

Which results are given for `COc1ccc(-c2cc3c(N4CC5CCC(C4)N5C(=O)[C@@H]4C[C@H]4F)ccnn3c2)cn1` [Example 114, ((1S,2R)-2-fluorocyclopropyl)(3-(6-(6-methoxypyridin-3-yl)pyrrolo[1,2-b]pyridazin-4-yl)-3,8-diazabicyclo[3.2.1]octan-8-yl)methanone]?
IC50 [1]: 684 nM; IC50 [2]: 3.8 nM; IC50 [3]: 54 nM; IC50 [4]: 47 nM

`O=C([C@@H]1C[C@H]1F)N1C2CCC1CN(c1ccnn3cc(-c4ccc(OC(F)F)nc4)cc13)C2` [Example 115, (3-(6-(6-(difluoromethoxy)pyridin-3-yl)pyrrolo[1,2-b]pyridazin-4-yl)-3,8-diazabicyclo[3.2.1]octan-8-yl)((1S,2R)-2-fluorocyclopropyl)methanone] was tested. Which IC50 [1] did it give?
Its IC50 is 961 nM.

What about the IC50 [2] of the same molecule?
Its IC50 is 6 nM.

And the IC50 [3]?
The IC50 was 105 nM.

And the IC50 [4]?
Its IC50 is 82 nM.

Which IC50 [1] does the source give for `O=C([C@@H]1C[C@H]1F)N1C2CCC1CN(c1ccnn3cc(-c4ccc(C(F)F)nc4)cc13)C2` [Example 116, (3-(6-(6-(difluoromethyl)pyridin-3-yl)pyrrolo[1,2-b]pyridazin-4-yl)-3,8-diazabicyclo[3.2.1]octan-8-yl)((1S,2R)-2-fluorocyclopropyl)methanone] here?
The IC50 was 847 nM.

What about the IC50 [2] of the same molecule?
The IC50 was 2.6 nM.

What about the IC50 [3] of the same molecule?
Its IC50 is 44 nM.

What about the IC50 [4] of the same molecule?
The IC50 was 41 nM.

`O=C([C@@H]1C[C@H]1F)N1C2CCC1CN(c1ccnn3cc(-c4ccc(C(F)(F)F)nc4)cc13)C2` [Example 117, ((1S,2R)-2-fluorocyclopropyl)(3-(6-(6-(trifluoromethyl)pyridin-3-yl)pyrrolo[1,2-b]pyridazin-4-yl)-3,8-diazabicyclo[3.2.1]octan-8-yl)methanone] was tested. Which IC50 [1] did it give?
The IC50 was 878 nM.

And the IC50 [2]?
The IC50 was 5.2 nM.

What about the IC50 [3] of the same molecule?
The IC50 was 67 nM.

What about the IC50 [4] of the same molecule?
Its IC50 is 64 nM.

For `Cn1cc(-c2cc3c(N4CC5CCC(C4)N5C(=O)[C@@H]4C[C@H]4F)ccnn3c2)c(F)n1` [Example 118, (3-(6-(3-fluoro-1-methyl-1H-pyrazol-4-yl)pyrrolo[1,2-b]pyridazin-4-yl)-3,8-diazabicyclo[3.2.1]octan-8-yl)((1S,2R)-2-fluorocyclopropyl)methanone], which IC50 [1] is on record?
Its IC50 is 502 nM.

What about the IC50 [2] of the same molecule?
The IC50 was 1.8 nM.

What about the IC50 [3] of the same molecule?
The IC50 was 92 nM.

And the IC50 [4]?
Its IC50 is 28 nM.

`O=C([C@@H]1C[C@H]1F)N1C2CCC1CN(c1ccnn3cc(-c4ccnc(N5CCC5)c4)cc13)C2` [Example 119, (3-(6-(2-(azetidin-1-yl)pyridin-4-yl)pyrrolo[1,2-b]pyridazin-4-yl)-3,8-diazabicyclo[3.2.1]octan-8-yl)((1S,2R)-2-fluorocyclopropyl)methanone] was tested. Which IC50 [1] did it give?
Its IC50 is 5520 nM.

And the IC50 [2]?
The IC50 was 45 nM.

What about the IC50 [3] of the same molecule?
The IC50 was 1720 nM.

And the IC50 [4]?
The IC50 was 215 nM.

With `O=C([C@@H]1C[C@H]1F)N1C2CCC1CN(c1ccnn3cc(-c4ccnc(N5CC(F)(F)C5)c4)cc13)C2` [Example 120, (3-(6-(2-(3,3-difluoroazetidin-1-yl)pyridin-4-yl)pyrrolo[1,2-b]pyridazin-4-yl)-3,8-diazabicyclo[3.2.1]octan-8-yl)((1S,2R)-2-fluorocyclopropyl)methanone] as the molecule, how does the IC50 [1] read?
Its IC50 is 10000 nM.

What about the IC50 [2] of the same molecule?
Its IC50 is 85.2 nM.

What about the IC50 [3] of the same molecule?
The IC50 was 1650 nM.

And the IC50 [4]?
Its IC50 is 636 nM.

How did the IC50 [1] turn out when `Cn1ncc(-c2cc3c(N4CC5CCC(C4)N5C(=O)[C@@H]4C[C@H]4F)ccnn3c2)c1F` [Example 121, (3-(6-(5-fluoro-1-methyl-1H-pyrazol-4-yl)pyrrolo[1,2-b]pyridazin-4-yl)-3,8-diazabicyclo[3.2.1]octan-8-yl)((1S,2R)-2-fluorocyclopropyl)methanone] was run?
Its IC50 is 606 nM.

What about the IC50 [2] of the same molecule?
Its IC50 is 4.7 nM.

And the IC50 [3]?
The IC50 was 117 nM.

And the IC50 [4]?
The IC50 was 113 nM.

`COc1ccc(-c2cc3c(N4CC5CCC(C4)N5C(=O)[C@@H]4C[C@H]4F)ccnn3c2)nn1` [Example 122, ((1S,2R)-2-fluorocyclopropyl)(3-(6-(6-methoxypyridazin-3-yl)pyrrolo[1,2-b]pyridazin-4-yl)-3,8-diazabicyclo[3.2.1]octan-8-yl)methanone] was tested. Which IC50 [1] did it give?
The IC50 was 940 nM.

And the IC50 [2]?
Its IC50 is 3.7 nM.

What about the IC50 [3] of the same molecule?
The IC50 was 308 nM.

What about the IC50 [4] of the same molecule?
The IC50 was 63 nM.

What does the source list for `COc1cncc(-c2cc3c(N4CC5CCC(C4)N5C(=O)[C@@H]4C[C@H]4F)ccnn3c2)n1` [Example 123, ((1S,2R)-2-fluorocyclopropyl)(3-(6-(6-methoxypyrazin-2-yl)pyrrolo[1,2-b]pyridazin-4-yl)-3,8-diazabicyclo[3.2.1]octan-8-yl)methanone]?
IC50 [1]: 5510 nM; IC50 [2]: 23.7 nM; IC50 [3]: 302 nM; IC50 [4]: 386 nM

For `COc1cnc(-c2cc3c(N4CC5CCC(C4)N5C(=O)[C@@H]4C[C@H]4F)ccnn3c2)cn1` [Example 124, ((1S,2R)-2-fluorocyclopropyl)(3-(6-(5-methoxypyrazin-2-yl)pyrrolo[1,2-b]pyridazin-4-yl)-3,8-diazabicyclo[3.2.1]octan-8-yl)methanone], which IC50 [1] is on record?
The IC50 was 7440 nM.

What about the IC50 [2] of the same molecule?
Its IC50 is 54.5 nM.

And the IC50 [3]?
The IC50 was 405 nM.

What about the IC50 [4] of the same molecule?
The IC50 was 700 nM.

`Cc1ccc(-c2cc3c(N4CC5CCC(C4)N5C(=O)[C@@H]4C[C@H]4F)ccnn3c2)nn1` [Example 125, ((1S,2R)-2-fluorocyclopropyl)(3-(6-(6-methylpyridazin-3-yl)pyrrolo[1,2-b]pyridazin-4-yl)-3,8-diazabicyclo[3.2.1]octan-8-yl)methanone] was tested. Which IC50 [1] did it give?
The IC50 was 1010 nM.

What about the IC50 [2] of the same molecule?
The IC50 was 8.8 nM.

And the IC50 [3]?
The IC50 was 236 nM.

What about the IC50 [4] of the same molecule?
The IC50 was 49 nM.

For `CNc1nccc(-c2cc3c(N4CC5CCC(C4)N5C(=O)[C@@H]4C[C@H]4F)ccnn3c2)n1` [Example 126, ((1S,2R)-2-fluorocyclopropyl)(3-(6-(2-(methylamino)pyrimidin-4-yl)pyrrolo[1,2-b]pyridazin-4-yl)-3,8-diazabicyclo[3.2.1]octan-8-yl)methanone], which IC50 [1] is on record?
Its IC50 is 1460 nM.

And the IC50 [2]?
The IC50 was 8.8 nM.

And the IC50 [3]?
The IC50 was 54 nM.

What about the IC50 [4] of the same molecule?
Its IC50 is 98 nM.

How did the IC50 [1] turn out when `CNc1cncc(-c2cc3c(N4CC5CCC(C4)N5C(=O)[C@@H]4C[C@H]4F)ccnn3c2)n1` [Example 127, ((1S,2R)-2-fluorocyclopropyl)(3-(6-(6-(methylamino)pyrazin-2-yl)pyrrolo[1,2-b]pyridazin-4-yl)-3,8-diazabicyclo[3.2.1]octan-8-yl)methanone] was run?
Its IC50 is 3140 nM.

What about the IC50 [2] of the same molecule?
Its IC50 is 18 nM.

What about the IC50 [3] of the same molecule?
Its IC50 is 211 nM.

What about the IC50 [4] of the same molecule?
Its IC50 is 300 nM.

For `CN(C)c1cc(-c2cc3c(N4CC5CCC(C4)N5C(=O)[C@@H]4C[C@H]4F)ccnn3c2)ccn1` [Example 128, (3-(6-(2-(dimethylamino)pyridin-4-yl)pyrrolo[1,2-b]pyridazin-4-yl)-3,8-diazabicyclo[3.2.1]octan-8-yl)((1S,2R)-2-fluorocyclopropyl)methanone], which IC50 [1] is on record?
The IC50 was 844 nM.

What about the IC50 [2] of the same molecule?
The IC50 was 2.9 nM.

And the IC50 [3]?
The IC50 was 29 nM.

What about the IC50 [4] of the same molecule?
The IC50 was 68 nM.

`CNc1ccc(-c2cc3c(N4CC5CCC(C4)N5C(=O)[C@@H]4C[C@H]4F)ccnn3c2)cn1` [Example 129, ((1S,2R)-2-fluorocyclopropyl)(3-(6-(6-(methylamino)pyridin-3-yl)pyrrolo[1,2-b]pyridazin-4-yl)-3,8-diazabicyclo[3.2.1]octan-8-yl)methanone] was tested. Which IC50 [1] did it give?
The IC50 was 658 nM.

And the IC50 [2]?
Its IC50 is 3.8 nM.

And the IC50 [3]?
Its IC50 is 69 nM.

What about the IC50 [4] of the same molecule?
Its IC50 is 73 nM.

For `Cc1cncc(-c2cc3c(N4CC5CCC(C4)N5C(=O)[C@@H]4C[C@H]4F)ccnn3c2)n1` [Example 130, ((1S,2R)-2-fluorocyclopropyl)(3-(6-(6-methylpyrazin-2-yl)pyrrolo[1,2-b]pyridazin-4-yl)-3,8-diazabicyclo[3.2.1]octan-8-yl)methanone], which IC50 [1] is on record?
The IC50 was 5420 nM.

What about the IC50 [2] of the same molecule?
The IC50 was 52.8 nM.

And the IC50 [3]?
Its IC50 is 806 nM.

What about the IC50 [4] of the same molecule?
The IC50 was 674 nM.

With `Cc1cnc(-c2cc3c(N4CC5CCC(C4)N5C(=O)[C@@H]4C[C@H]4F)ccnn3c2)cn1` [Example 131, ((1S,2R)-2-fluorocyclopropyl)(3-(6-(5-methylpyrazin-2-yl)pyrrolo[1,2-b]pyridazin-4-yl)-3,8-diazabicyclo[3.2.1]octan-8-yl)methanone] as the molecule, how does the IC50 [1] read?
Its IC50 is 5470 nM.

What about the IC50 [2] of the same molecule?
Its IC50 is 50.7 nM.

What about the IC50 [3] of the same molecule?
The IC50 was 562 nM.

And the IC50 [4]?
The IC50 was 672 nM.

Which results are given for `O=C([C@@H]1C[C@H]1F)N1C2CCC1CN(c1ccnn3cc(-c4ccc(=O)n(C(F)F)c4)cc13)C2` [Example 132, 1-(difluoromethyl)-5-(4-(8-((1S,2R)-2-fluorocyclopropane-1-carbonyl)-3,8-diazabicyclo[3.2.1]octan-3-yl)pyrrolo[1,2-b]pyridazin-6-yl)pyridin-2(1H)-one]?
IC50 [1]: 452 nM; IC50 [2]: 3.3 nM; IC50 [3]: 34 nM; IC50 [4]: 37 nM

For `Cn1ncc(-c2cc3c(N4CC5CCC(C4)N5C(=O)[C@@H]4C[C@H]4F)ccnn3c2)c1F` [Example 133, (3-(6-(5-fluoro-1-methyl-1H-pyrazol-4-yl)pyrrolo[1,2-b]pyridazin-4-yl)-3,8-diazabicyclo[3.2.1]octan-8-yl)((1S,2R)-2-fluorocyclopropyl)methanone], which IC50 [1] is on record?
Its IC50 is 856 nM.

And the IC50 [2]?
Its IC50 is 6 nM.

And the IC50 [3]?
The IC50 was 124 nM.

What about the IC50 [4] of the same molecule?
The IC50 was 112 nM.
